Like-named read-outs stand apart in the source and are kept apart here. Where only a bound is given, the exact number is not on record here.

A word on the IC50: it is the concentration needed to halve the response being measured.

Assay [1] has as its target Human factor Xa (Homo sapiens, UniProt P00742). Description: Xa Assay. As to conditions: for IC50 or % Inhibition Factor Xa (30 µM): % inhibition at 30 µM.
Assay [2] deals with T1, TF-VIIa (Homo sapiens, UniProt P08709).
T1 construct: 2nM recombinant human factor VIIa; purchased American Diagnostica, Greenwich CT; host or cells: soluble TF made in house in E. coli
In words: TF-VIIa Assay. The format is biochemical.

The mark [3] stands for this setting: read-out: IC50 or % Inhibition Factor Xa (30 µM), cells given as a plain number (IC50).
Where [4] appears, read: cells given as a plain number (IC50); read-out: IC50 or % Inhibition TF-VIIa (30 µM).
Where [5] appears, read: read-out: IC50 or % Inhibition TF-VIIa (30 µM); cells given as a plain number (IC50).

Sequence of Human factor Xa (P00742 235-488 limits assumed): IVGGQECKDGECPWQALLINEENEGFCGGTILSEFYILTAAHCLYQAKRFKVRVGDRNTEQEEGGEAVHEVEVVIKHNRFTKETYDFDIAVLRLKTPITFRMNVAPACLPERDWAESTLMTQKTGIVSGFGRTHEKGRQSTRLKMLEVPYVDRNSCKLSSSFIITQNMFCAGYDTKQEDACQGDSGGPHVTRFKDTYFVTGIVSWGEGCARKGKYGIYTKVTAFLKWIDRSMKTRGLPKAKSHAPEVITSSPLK
Sequence of Human factor Xa (P00742 41-179 limits assumed): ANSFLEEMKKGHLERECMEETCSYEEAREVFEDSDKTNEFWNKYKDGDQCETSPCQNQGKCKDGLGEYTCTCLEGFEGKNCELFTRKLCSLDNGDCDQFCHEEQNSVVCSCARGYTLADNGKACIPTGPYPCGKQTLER
T1 sequence (P08709 213-466 limits assumed): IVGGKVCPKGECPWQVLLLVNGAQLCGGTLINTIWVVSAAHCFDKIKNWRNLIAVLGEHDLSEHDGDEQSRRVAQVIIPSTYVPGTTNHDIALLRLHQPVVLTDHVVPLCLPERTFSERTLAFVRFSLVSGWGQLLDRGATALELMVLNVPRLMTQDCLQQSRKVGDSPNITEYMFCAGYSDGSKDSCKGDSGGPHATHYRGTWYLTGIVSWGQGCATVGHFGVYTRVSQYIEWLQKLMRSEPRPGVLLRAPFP
T1 sequence (P08709 61-212 limits assumed): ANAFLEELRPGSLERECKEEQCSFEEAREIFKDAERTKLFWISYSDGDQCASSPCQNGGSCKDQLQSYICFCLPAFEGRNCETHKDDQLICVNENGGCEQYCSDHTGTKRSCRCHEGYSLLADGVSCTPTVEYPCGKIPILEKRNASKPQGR
T1 sequence (P13726 33-251 partner limits assumed): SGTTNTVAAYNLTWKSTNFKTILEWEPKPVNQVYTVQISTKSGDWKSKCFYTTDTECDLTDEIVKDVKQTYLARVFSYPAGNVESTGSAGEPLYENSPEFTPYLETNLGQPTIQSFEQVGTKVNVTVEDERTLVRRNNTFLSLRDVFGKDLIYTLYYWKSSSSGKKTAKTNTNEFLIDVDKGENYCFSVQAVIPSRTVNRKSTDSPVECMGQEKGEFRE

Turning to `Cc1cccc(-c2cnc(NCCc3ccccc3)c(=O)n2CC(=O)NCc2ccc(C(=N)N)cc2)c1` [compound 84], the values for the half-maximal inhibitory concentration (IC50) in assay [1] (setting [3]) and in assay [2] (setting [4]) were greater than 30 µM and 3.03 µM, respectively.
On to `CC(C)Nc1nc(Cl)c(-c2cccc(C#N)c2)n(CC(=O)NCc2ccc(C(=N)N)cc2)c1=O` [Example 17], for which, in assay [1], the “IC50 or % Inhibition Factor Xa (30 µM)” value is listed as 41%. Besides, in assay [2] (setting [4]), the IC50 was 0.71 µM.
`N=C(N)c1ccc(CNC(=O)Cn2c(-c3cccc(F)c3)c(Cl)nc(NCc3ccccc3)c2=O)cc1` [1515-09]: the IC50 was greater than 30 µM in assay [1] (setting [3]) and 4.1 µM in assay [2] (setting [5]).
On to `N=C(N)c1ccc(CNC(=O)Cn2c(-c3ccccc3)c(Cl)nc(NCc3ccc(Cl)cc3Cl)c2=O)cc1` [1507-22], for which the IC50 in assay [1] (setting [3]) was greater than 30 µM. Moreover, in assay [2], the “IC50 or % Inhibition TF-VIIa (30 µM)” value stood at 45%.
As to `N=C(N)c1ccc(CNC(=O)Cn2c(-c3ccccc3)c(Cl)nc(NCCNc3ncc(C(F)(F)F)cc3Cl)c2=O)cc1` [1522-37], the IC50 in assay [1] (setting [3]) was greater than 30 µM; in assay [2] (setting [5]), 2 µM.
Take `N=C(N)c1ccc(CNC(=O)Cn2c(-c3ccccc3)c(Cl)nc(NCc3ccc(Br)cc3)c2=O)cc1` [1507-30]: the results for the IC50 in assay [1] (setting [3]) and in assay [2] (setting [5]) were greater than 30 µM and 13.4 µM, respectively.
`Cc1c(N)cccc1-c1c(Cl)nc(NC(C)C)c(=O)n1CC(=O)NCc1ccc(C(=N)N)cc1` [compound 97]: the IC50 in assay [1] (setting [3]) is greater than 30 µM; in assay [2] (setting [4]), 0.04 µM.
As for `N=C(N)c1ccc(CNC(=O)Cn2c(-c3ccccc3)c(Cl)nc(NC3CCCCCC3)c2=O)cc1` [1522-36], the IC50 in assay [1] (setting [3]) was greater than 30 µM; in assay [2] (setting [4]), 1 µM.
Turning to `N=C(N)c1ccc(CNC(=O)Cn2c(-c3ccccc3)c(Cl)nc(NC3CCCCCC3)c2=O)cc1` [1512-16], in assay [1], the “IC50 or % Inhibition Factor Xa (30 µM)” value turned out to be 10%. Besides, in assay [2] (setting [4]), the IC50 was 6.5 µM.
On to `N=C(N)NCCC[C@H](NC(=O)Cn1c(-c2ccccc2)c(Cl)nc(NCCc2ccccc2)c1=O)C(=O)c1nccs1` [Example 3], for which the IC50 in assay [1] is 1 µM; in assay [2] (setting [4]), 0.2 µM.
As to `N=C(N)NCCC[C@H](NC(=O)Cn1c(CCc2ccccc2)c(Cl)nc(NCCc2ccccc2)c1=O)C(=O)c1nccs1` [Example 5], the IC50 in assay [1] came out at 4 µM; in assay [2] (setting [4]), 7 µM.
Consider `N=C(N)c1ccc(CNC(=O)Cn2c(-c3ccccc3F)c(Cl)nc(NC3CCC3)c2=O)cc1` [1515-23], for which the values for the IC50 in assay [1] (setting [3]) and in assay [2] (setting [5]) were greater than 30 µM and 6.2 µM, respectively.
Regarding `N=C(N)c1ccc(CNC(=O)Cn2c(-c3ccccc3)c(Cl)nc(NCc3ccccc3C(F)(F)F)c2=O)cc1` [1507-15], the IC50 in assay [1] (setting [3]) is greater than 30 µM; in assay [2] (setting [5]), 12 µM.
Regarding `N=C(N)c1ccc(CNC(=O)Cn2c(-c3cccc(N)c3)c(Cl)nc(NCC(F)(F)F)c2=O)cc1` [1526-04], the values for the IC50 in assay [1] (setting [3]) and in assay [2] (setting [5]) were greater than 30 µM and 0.03 µM, respectively.
In the case of `CC(C)CNc1nc(Cl)c(-c2cccc(N)c2)n(CC(=O)NCc2ccc(C(=N)N)cc2)c1=O` [1526-26], the IC50 in assay [1] (setting [3]) was greater than 30 µM; in assay [2] (setting [5]), 0.06 µM.
`CC(C)C(C)Nc1nc(Cl)c(-c2cccc(N)c2)n(CC(=O)NCc2ccc(C(=N)N)cc2)c1=O` (stereo not shown) [1526-15]: the IC50 is greater than 30 µM in assay [1] (setting [3]) and 0.06 µM in assay [2] (setting [5]).
In the same order, the values of `N=C(N)c1ccc(CNC(=O)Cn2c(-c3cccc(Br)c3)c(Cl)nc(NCCc3ccccc3)c2=O)cc1` [1515-34] are greater than 30 µM and 4.4 µM.
Consider `CN(C)Nc1nc(Cl)c(-c2cccc(N)c2)n(CC(=O)NCc2ccc(C(=N)N)cc2)c1=O` [compound 94], for which the half-maximal inhibitory concentration (IC50) was greater than 30 µM in assay [1] (setting [3]) and 0.04 µM in assay [2] (setting [4]).
For `CC(CNc1nc(Cl)c(-c2ccccc2)n(CC(=O)NCc2ccc(C(=N)N)cc2)c1=O)N(C)C` (stereo not shown) [1522-23], the IC50 was greater than 30 µM in assay [1] (setting [3]) and 2.2 µM in assay [2] (setting [5]).
In the case of `CC(C)C(C)Nc1nc(Cl)c(-c2ccccc2)n(CC(=O)NCc2ccc(C(=N)N)cc2)c1=O` (stereo not shown) [1522-15], the IC50 in assay [1] (setting [3]) is greater than 30 µM; in assay [2] (setting [5]) it was 0.54 µM.
For the compound `N=C(N)c1ccc(CNC(=O)Cn2c(-c3ccccc3)c(Cl)nc(NC3CC4CCC3C4)c2=O)cc1` (stereo not shown) [1522-44], the IC50 was greater than 30 µM in assay [1] (setting [3]) and 0.8 µM in assay [2] (setting [4]).
With `N=C(N)c1ccc(CNC(=O)Cn2c(-c3ccccc3)c(Cl)nc(NCc3cccc4ccccc34)c2=O)cc1` [1507-28], in assay [1] (setting [3]), the IC50 was greater than 30 µM. Further, the “IC50 or % Inhibition TF-VIIa (30 µM)” value in assay [2] amounted to 38%.
Turning to `CC(C)CNc1nc(Cl)c(-c2ccccc2)n(CC(=O)NCc2ccc(C(=N)N)cc2)c1=O` [1522-34], the results for the IC50 in assay [1] (setting [3]) and in assay [2] (setting [4]) were greater than 30 µM and 0.5 µM, respectively.
In the case of `N=C(N)c1ccc(CNC(=O)Cn2c(-c3ccccc3)cnc(NC(=O)Nc3ccccc3)c2=O)cc1` [Example 106], the “IC50 or % Inhibition Factor Xa (30 µM)” value in assay [1] is 30%. Further, the concentration for half-maximal inhibition (IC50) in assay [2] (setting [4]) turned out to be 1.11 µM.
`CC(C)CC(C)Nc1nc(Cl)c(-c2ccccc2)n(CC(=O)NCc2ccc(C(=N)N)cc2)c1=O` (stereo not shown) [1522-17]: the 50% inhibitory concentration (IC50) is greater than 30 µM in assay [1] (setting [3]) and 0.62 µM in assay [2] (setting [5]).
Regarding `N=C(N)NCCCCNC(=O)Cn1c(-c2ccc3c(c2)OCO3)cnc(NCCc2ccccc2)c1=O` [Example 16], the IC50 in assay [1] and in assay [2] (setting [4]) was greater than 100 µM in each case.
Turning to `N=C(N)c1ccc(CNC(=O)Cn2c(-c3ccccc3)c(Cl)nc(NCCc3ccncc3)c2=O)cc1` [1471-13], the “IC50 or % Inhibition Factor Xa (30 µM)” value in assay [1] stood at 0%. Further, in assay [2] (setting [4]), the IC50 was found to be 1.47 µM.
Regarding `CCCCNc1nc(Cl)c(-c2ccccc2)n(CC(=O)NCc2ccc(C(=N)N)cc2)c1=O` [1512-14], the “IC50 or % Inhibition Factor Xa (30 µM)” value in assay [1] is 7%. In assay [2] (setting [4]), the IC50 was found to be 3.2 µM.
`N=C(N)c1ccc(CNC(=O)Cn2c(-c3ccccc3)c(Cl)nc(NCc3cccc(C(=N)N)c3)c2=O)cc1` [Example 52]: the IC50 in assay [1] worked out at 24 µM; in assay [2] (setting [4]), 0.59 µM.
In the case of `N=C(N)c1ccc(CNC(=O)Cn2c(-c3cccc(N)c3)c(Cl)nc(NCCc3ccccc3)c2=O)cc1` [compound 86], the “IC50 or % Inhibition Factor Xa (30 µM)” value in assay [1] came to 26%@30. Besides, the IC50 in assay [2] (setting [4]) is 0.07 µM.
Consider `Cc1c(N)cccc1-c1cnc(NC(C)C)c(=O)n1CC(=O)NCc1ccc(C(=N)N)cc1` [compound 98], for which the “IC50 or % Inhibition Factor Xa (30 µM)” value in assay [1] stood at 10%@30. The IC50 in assay [2] (setting [4]) came to 0.09 µM.
Consider `N=C(N)c1ccc(CNC(=O)Cn2c(-c3ccccc3)c(Cl)nc(NCCc3ccc(Br)cc3)c2=O)cc1` [1507-06], for which the IC50 in assay [1] (setting [3]) is greater than 30 µM; in assay [2] (setting [5]) it was 20 µM.
In the case of `CC(C)Nc1nc(Cl)c(-c2cccnc2)n(CC(=O)NCc2ccc(C(=N)N)cc2)c1=O` [compound 75], in assay [1], the “IC50 or % Inhibition Factor Xa (30 µM)” value was determined as 9%. Besides, in assay [2] (setting [4]), the IC50 came to 0.21 µM.
Consider `N=C(N)c1ccc(CNC(=O)Cn2c(-c3sccc3Br)c(Cl)nc(NCCc3ccccc3)c2=O)cc1` [1515-27], for which the results for the IC50 in assay [1] (setting [3]) and in assay [2] (setting [5]) were greater than 30 µM and 1.1 µM, respectively.
In the case of `N=C(N)c1ccc(CNC(=O)Cn2c(-c3cccc(C(F)(F)F)c3)c(Cl)nc(NCc3ccccc3)c2=O)cc1` [1515-01], the IC50 in assay [1] (setting [3]) was greater than 30 µM; in assay [2] (setting [5]), 7 µM.
In the case of `N=C(N)c1ccc(CNC(=O)Cn2c(-c3ccccc3)c(Cl)nc(NC3CCS(=O)(=O)C3)c2=O)cc1` (stereo not shown) [1512-19], the “IC50 or % Inhibition Factor Xa (30 µM)” value in assay [1] is 3%. Besides, the IC50 in assay [2] (setting [4]) came out at 14.3 µM.
As to `CC(C)(C)Nc1nc(Cl)c(-c2cccc(N)c2)n(CC(=O)NCc2ccc(C(=N)N)cc2)c1=O` [compound 93], the IC50 in assay [1] (setting [3]) is greater than 30 µM; in assay [2] (setting [4]), 0.07 µM.
On to `N=C(N)c1ccc(CNC(=O)Cn2c(-c3ccccc3)c(Cl)nc(NC(Cc3ccccc3)c3ccccc3)c2=O)cc1` (stereo not shown) [1507-07], for which the IC50 in assay [1] (setting [3]) is greater than 30 µM. Moreover, the “IC50 or % Inhibition TF-VIIa (30 µM)” value in assay [2] is 25%.

The values above are taken from patent EP1202975B1, “SUBSTITUTED POLYCYCLIC ARYL AND HETEROARYL PYRAZINONES USEFUL FOR SELECTIVE INHIBITION OF THE COAGULATION CASCADE” (Pharmacia Corporation, priority 1999, dated 2000).
